Measured values published in US9211310B2, “Use of a Chinese medicine composition in preparing medicaments for treating secondary prevention of myocardial infarction” (TASLY PHARMACEUTICAL GROUP CO., LTD, priority 2010, dated 2015).

Tested on: patients after acute myocardial infarction
Test: Life quality, Seattle Angina Questionnaire (SAQ), same clinical trial
Format: in vivo, human
Conditions: FAS
Text: 3508 patients who were in accordance with the diagnostic standards of AMI for 28 days to 2 years and differentiated as Qi deficiency and blood stagnation syndrome by TCM were studied. 0.5 g Chinese medicine composition prepared by the method of EXAMPLE 1 (Coded as QSYQ) was administrated half an hour after meal, 3 times per day.
There were 19 questions in the Seattle angina questionnaire (SAQ), including 5 parts: physical limitation (PL), anginal stability (AS), anginal frequency (AF), treatment satisfaction (TS) and disease perception (DP). After being given necessary explanation by doctors, the questions were answered independently by patients.
They included the overall survival time, angina pectoris score, TCM symptom score and life quality score, where angina pectoris score, TCM symptom score and life quality score were evaluated at randomization, in 1st, 3rd, 6th, 9th, 12th month after treatment and 18th month after follow-up.
All evaluation results of SAQ were described during the period of observation, and Wilcoxon rank sum test was used for inter-group comparison.
The evaluation results in the SAQ were depicted in different observations, and inter-group comparison was tested by Wilcoxon Rank-sum test.

Compound: CC(=O)Oc1ccccc1C(=O)O [Control group, aspirine]
- SAQ Question 1-1 Other reasons, percent of patients (9 months after treatment): (0.17%)
- SAQ Question 1-1 Severely limited, number of patients (9 months after treatment): 1
- SAQ Question 1-1 Severely limited, percent of patients (9 months after treatment): (0.06%)
- SAQ Question 1-1 Slightly limited, number of patients (9 months after treatment): 67
- SAQ Question 1-1 Slightly limited, percent of patients (9 months after treatment): (3.84%)
- SAQ Question 1-2 Mildly limited, number of patients (9 months after treatment): 29
- SAQ Question 1-2 Mildly limited, percent of patients (9 months after treatment): (1.66%)
- SAQ Question 1-2 Moderately limited, number of patients (9 months after treatment): 7
- SAQ Question 1-2 Moderately limited, percent of patients (9 months after treatment): (0.40%)
- SAQ Question 1-2 Not limited, number of patients (9 months after treatment): 1631
- SAQ Question 1-2 Not limited, percent of patients (9 months after treatment): (93.52%)
- SAQ Question 1-2 Other reasons, number of patients (9 months after treatment): 5
- SAQ Question 1-2 Other reasons, percent of patients (9 months after treatment): (0.29%)
- SAQ Question 1-2 Severely limited, number of patients (9 months after treatment): 0
- SAQ Question 1-2 Severely limited, percent of patients (9 months after treatment): (0.00%)
- SAQ Question 1-2 Slightly limited, number of patients (9 months after treatment): 72
- SAQ Question 1-2 Slightly limited, percent of patients (9 months after treatment): (4.13%)
- SAQ Question 1-6: Mildly limited, patients (%) (9 months after treatment): (15.79%)
- SAQ Question 1-6: Moderately limited, patients (%) (9 months after treatment): (11.08%)
- SAQ Question 1-6: Not limited, patients (%) (9 months after treatment): (37.31%)
- SAQ Question 1-6: Other reasons, patients (%) (9 months after treatment): (0.86%)
- SAQ Question 1-6: Severely limited, patients (%) (9 months after treatment): (2.93%)
- SAQ Question 1-6: Slightly limited, patients (%) (9 months after treatment): (32.03%)
- SAQ Question 1-7: Mildly limited, patients (%) (9 months after treatment): (21.69%)
- SAQ Question 1-7: Moderately limited, patients (%) (9 months after treatment): (11.86%)
- SAQ Question 1-7: Not limited, patients (%) (9 months after treatment): (17.87%)
- SAQ Question 1-7: Other reasons, patients (%) (9 months after treatment): (3.07%)
- SAQ Question 1-7: Severely limited, patients (%) (9 months after treatment): (14.29%)
- SAQ Question 1-7: Slightly limited, patients (%) (9 months after treatment): (31.23%)
- SAQ Question 1-8: Mildly limited, patients (%) (9 months after treatment): (24.55%)
- SAQ Question 1-8: Moderately limited, patients (%) (9 months after treatment): (15.03%)
- SAQ Question 1-8: Not limited, patients (%) (9 months after treatment): (11.96%)
- SAQ Question 1-8: Other limited, patients (%) (9 months after treatment): (3.60%)
- SAQ Question 1-8: Severely limited, patients (%) (9 months after treatment): (17.93%)
- SAQ Question 1-8: Slightly limited, patients (%) (9 months after treatment): (26.93%)
- 8th question: Dissatisfied, patients (%) (12 months after treatment): (0.29%)
- 8th question: Highly satisfied, patients (%) (12 months after treatment): (25.29%)
- 8th question: Mostly dissatisfied, patients (%) (12 months after treatment): (2.01%)
- 8th question: Mostly satisfied, patients (%) (12 months after treatment): (60.09%)
- 8th question: Partly satisfied, patients (%) (12 months after treatment): (12.33%)
- 9th question: Few, patients (%) (12 months after treatment): (39.74%)
- 9th question: Mild, patients (%) (12 months after treatment): (30.56%)
- 9th question: Moderate, patients (%) (12 months after treatment): (6.82%)
- 9th question: Severe, patients (%) (12 months after treatment): (0.97%)
- 9th question: Uneffective, patients (%) (12 months after treatment): (21.90%)
- 10th question: Dissatisfied, patients (%) (12 months after treatment): (19.50%)
- 10th question: Highly satisfied, patients (%) (12 months after treatment): (7.57%)
- 10th question: Mostly dissatisfied, patients (%) (12 months after treatment): (19.21%)
- 10th question: Mostly satisfied, patients (%) (12 months after treatment): (30.85%)
- 10th question: Partly dissatisfied, patients (%) (12 months after treatment): (22.88%)
- 11th question: Continuously worried, patients (%) (12 months after treatment): (3.15%)
- 11th question: No worried, patients (%) (12 months after treatment): (7.11%)
- 11th question: Occasionally worried, patients (%) (12 months after treatment): (40.60%)
- 11th question: Often worried, patients (%) (12 months after treatment): (9.23%)
- 11th question: Seldom worried, patients (%) (12 months after treatment): (39.91%)
- SAQ 4th question, 1-2 times per week: % of patients (12 months after treatment): (10.61%)
- SAQ 4th question, 1-2 times per week: number of patients (12 months after treatment): 185
- SAQ 4th question, 1-3 times per week: % of patients (12 months after treatment): (4.24%)
- SAQ 4th question, 1-3 times per week: number of patients (12 months after treatment): 74
- SAQ 4th question, <1 time per week: % of patients (12 months after treatment): (16.51%)
- SAQ 4th question, <1 time per week: number of patients (12 months after treatment): 288
- SAQ 4th question, Not used: % of patients (12 months after treatment): (64.56%)
- SAQ 4th question, Not used: number of patients (12 months after treatment): 1126
- SAQ 4th question, ≧3 times per week: % of patients (12 months after treatment): (3.96%)
- SAQ 4th question, ≧3 times per week: number of patients (12 months after treatment): 69
- SAQ 4th question, ≧4 times per day: % of patients (12 months after treatment): (0.11%)
- SAQ 4th question, ≧4 times per day: number of patients (12 months after treatment): 2
- SAQ 5th question, 1-2 times per week: % of patients (12 months after treatment): (32.00%)
- SAQ 5th question, 1-2 times per week: number of patients (12 months after treatment): 558
- SAQ 5th question, 1-3 times per day: % of patients (12 months after treatment): (6.14%)
- SAQ 5th question, 1-3 times per day: number of patients (12 months after treatment): 107
- SAQ 5th question, <1 time per week: % of patients (12 months after treatment): (29.93%)
- SAQ 5th question, <1 time per week: number of patients (12 months after treatment): 522
- SAQ 5th question, No onset: % of patients (12 months after treatment): (5.28%)
- SAQ 5th question, No onset: number of patients (12 months after treatment): 92
- SAQ 5th question, ≧3 times per week: % of patients (12 months after treatment): (25.86%)
- SAQ 5th question, ≧3 times per week: number of patients (12 months after treatment): 451
